Laboratory results taken from EP1388586A2, “Identification of broadly reactive DR restricted epitopes” (priority 1998, dated 1999).
Like-named read-outs stand apart in the source and are kept apart here. Square brackets hold non-standard residues; d marks the D form. Peptide text beside a SMILES is read from it.

Key:
DRB1*0101 (DR1) = target: T1, DRB1*0101 (DR1) (Homo sapiens, UniProt P01903+P01911, A100R/D57E/F55L/F60I/F76Y/I96L/L162R/M171V/P40L/Q125E/R42F/V115G/Y59C); assay: Class II peptide-binding assay, DR1;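 note: competition assay: unlabeled test peptides inhibit binding of a radiolabeled probe peptide to purified DR, with half-maximal inhibition taken as an approximate dissociation constant Kd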
T1 construct: used as sources of human HLA class II molecules; endogenous in cells; host or cells: LG2 (EBV-transformed homozygous B cell line)

DRB5*0101 (DR2w2a) = target: T2, DRB5*0101 (DR2w2a) (Homo sapiens, UniProt P01903+Q30154); assay: Class II peptide-binding assay, DR2w2a (DR2w2B2);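 note: competitive binding assay: unlabeled peptide inhibiting binding of a radiolabeled probe peptide to purified DR molecules at pH 7.0, IC50 approximating Kd, lower means stronger binding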
T2 construct: used as sources of human HLA class II molecules; endogenous in cells; host or cells: GM3107 (EBV-transformed homozygous B cell line)
Procedure: (§1) Class II peptide-binding assays. […] These assays were chosen as to be representative of the most common DR alleles.
(§2) Radiolabeled peptides were iodinated using the chloramine-T method. […] In appropriate stoichiometric conditions, the IC50 of an unlabeled test peptide to the purified DR is a reasonable approximation of the affinity of interaction (Kd). Peptides were tested in two to four completely independent experiments. […] Final detergent concentration in the incubation mixture was 0.05% Nonidet P-40. Assays were performed at pH 7.0 with the exception of DR3, which was performed at pH 4.5, and DRw53, which was performed at pH 5.0.
(§3) All subsequent inhibition and direct binding assays were the performed using these class II concentrations.

DRB1*0301 (DR3w17) = target: T3, DRB1*0301 (DR3w17) (Homo sapiens, UniProt P01903+P01911, A100K/A102G/A103R/A169T/F55Y/I96L/K41T/L162R/M171V/P40S/Q125H/Q178H/Q39Y/R42S/S66N/T106N/T262R/W38E/Y61H); assay: Class II peptide-binding assay, DR3 (pH 4.5);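 note: unlabeled peptide competing with a radiolabeled probe peptide for binding to affinity-purified HLA-DR3, IC50 regarded as an approximation of Kd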
T3 construct: used as sources of human HLA class II molecules; endogenous in cells; host or cells: MAT (EBV-transformed homozygous B cell line)
Procedure: as §1
In appropriate stoichiometric conditions, the IC50 of an unlabeled test peptide to the purified DR is a reasonable approximation of the affinity of interaction (Kd). Peptides were tested in two to four completely independent experiments. […] Final detergent concentration in the incubation mixture was 0.05% Nonidet P-40. Assays were performed at pH 7.0 with the exception of DR3, which was performed at pH 4.5, and DRw53, which was performed at pH 5.0.
as §3

DRB1*0401 (DR4w4) = target: T4, DRB1*0401 (DR4w4) (Homo sapiens, UniProt P01903+P01911, A100K/A169T/F76Y/I96L/K127E/L162R/M171V/N62H/P40V/Q125Y/R42H/S133A/S149N/S66Y/V115G/V209L/W38E); assay: Class II peptide-binding assay, DR4w4;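 note: unlabeled test peptides compete with a radiolabeled probe peptide for binding to affinity-purified HLA-DR, with DR amount titrated to capture a small fraction of label, IC50 approximating Kd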
T4 construct: used as sources of human HLA class II molecules; endogenous in cells; host or cells: PREISS (EBV-transformed homozygous B cell line)

DRB1*1101 (DR5w11) = target: T5, DRB1*1101 (DR5w11) (Homo sapiens, UniProt P01903+P01911, A100R/A169T/A87E/I96F/K41T/L162R/M171V/P40S/Q125H/Q178H/Q39Y/Q99D/R42S/S66Y/T262R/V115G/W38E); assay: Class II peptide-binding assay, DR5w11;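 note: competition by unlabeled test peptide against iodinated probe peptide binding to affinity-purified HLA-DR, class II amount titrated beforehand, half-maximal inhibitory concentration read as approximate Kd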
T5 construct: used as sources of human HLA class II molecules; endogenous in cells; host or cells: SWEIG (EBV-transformed homozygous B cell line)

DRB1*0701 (DR7) = DRB1*0701 (DR7) (Homo sapiens, UniProt P01903+P01911, A100R/A102G/A103Q/D57E/D86V/E43K/F76Y/K127E/L162R/M171V/P40G/Q125H/Q99D/R33Q/R42Y/R54Q/S133A/S66F/T210M/V115G/Y107V/Y59L/Y89S); assay: Class II peptide-binding assay, DR7;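 note: unlabeled peptides compete with an iodinated probe peptide for binding to affinity-purified HLA-DR at neutral pH, DR amount titered to bind a small tracer fraction, IC50 approximating Kd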
Procedure: as §1, §2, §3

DRB10404 (DR4w14) = target: T6, DRB10404 (DR4w14) (Homo sapiens, UniProt P01903+P01911, A100R/A169T/F76Y/I96L/K127E/L162R/M171V/N62H/P40V/Q125Y/R42H/S133A/S149N/S66Y/V209L/W38E); assay: Class II peptide-binding assay, DR4w14;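 note: unlabeled peptides compete with a radiolabeled probe for binding to affinity-purified HLA-DR, neutral pH, class II amount titrated to bind a small fraction of label, IC50 approximates Kd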
T6 construct: used as sources of human HLA class II molecules; endogenous in cells; host or cells: BIN40 (EBV-transformed homozygous B cell line)

[1] = read-out: DR1 nM (In IC50 Format), purified HLA DR1
[2] = read-out: DR3 nM (In IC50 Format), purified HLA DR3
[3] = read-out: DR4w4 nM (In IC50 Format), purified HLA DR4w4
[4] = read-out: DR4w14 nM (In IC50 Format), purified HLA DR4w14
[5] = read-out: DR5w11 nM (In IC50 Format), purified HLA DR5w11
[6] = read-out: DR7 nM (In IC50 Format), purified HLA DR7
[7] = read-out: DR2w2B2 nM (In IC50 Format), purified HLA DR2w2β2

T3 sequence (P01903 26-254, other chains not shown): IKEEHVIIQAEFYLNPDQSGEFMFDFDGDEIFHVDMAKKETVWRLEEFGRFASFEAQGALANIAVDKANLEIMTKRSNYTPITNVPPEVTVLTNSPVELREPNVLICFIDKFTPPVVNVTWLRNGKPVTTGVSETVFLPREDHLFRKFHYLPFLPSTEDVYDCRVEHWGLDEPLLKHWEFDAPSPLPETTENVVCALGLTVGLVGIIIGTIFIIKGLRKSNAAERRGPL
T5 sequence (P01903 26-254, other chains not shown): as above

Row | Compound | IC50 (DRB1*0101 (DR1); [1]) [nM] | IC50 (DRB1*0301 (DR3w17); [2]) [nM] | IC50 (DRB1*0401 (DR4w4); [3]) [nM] | IC50 (DRB10404 (DR4w14); [4]) [nM] | IC50 (DRB1*1101 (DR5w11); [5]) [nM] | IC50 (DRB1*0701 (DR7); [6]) [nM] | further results
1 | CC[C@H](C)[C@H](NC(=O)[C@H](CC(N)=O)NC(=O)[C@H](CCCCN)NC(=O)[C@H](Cc1ccccc1)NC(=O)[C@H](Cc1ccccc1)NC(=O)[C@H](Cc1c[nH]cn1)NC(=O)[C@@H](NC(=O)[C@@H](NC(=O)[C@@H]1CCCN1C(=O)[C@H](CC(N)=O)NC(=O)[C@H](CCC(=O)O)NC(=O)[C@H](CC(=O)O)NC(=O)[C@H](CCC(N)=O)NC(=O)[C@@H](NC(=O)[C@H](CCCNC(=N)N)NC(=O)CN)[C@@H](C)O)C(C)C)C(C)C)C(=O)N[C@H](C(=O)N[C@H](C(=O)N1CCC[C@H]1C(=O)N[C@@H](CCCNC(=N)N)C(=O)O)[C@@H](C)O)C(C)C [Peptide 507.02] |  |  |  |  |  |  | IC50 (DRB1*0101 (DR1); read-out: In IC50 Format DR1, Table VIII): 17.2 nM; IC50 (DRB5*0101 (DR2w2a); read-out: In IC50 Format DR2w2β2, Table VIII): 250 nM; IC50 (DRB1*0301 (DR3w17); read-out: In IC50 Format DR3, Table VIII): 60000 nM; IC50 (DRB1*0401 (DR4w4); read-out: In IC50 Format DR4w4, Table VIII): 5.8 nM; IC50 (DRB1*1101 (DR5w11); read-out: In IC50 Format DR5w11, Table VIII): 133 nM; IC50 (DRB1*0701 (DR7); read-out: In IC50 Format DR7, Table VIII): 1000 nM
2 | CC[C@H](C)[C@H](NC(=O)[C@H](CO)NC(=O)[C@H](CCC(=O)O)NC(=O)[C@H](CC(C)C)NC(=O)[C@H](C)NC(=O)[C@@H](N)CC(=O)O)C(=O)N[C@@H](CCSC)C(=O)N[C@H](C(=O)N[C@H](C(=O)N[C@@H](CCCCN)C(=O)N[C@@H](CO)C(=O)N[C@H](C(=O)N[C@@H](CO)C(=O)N[C@@H](Cc1ccccc1)C(=O)N[C@@H](CCCNC(=N)N)C(=O)O)C(C)C)[C@@H](C)O)[C@@H](C)O [Peptide 774.00] |  |  |  |  |  |  | IC50 (DRB1*0101 (DR1); purified HLA DR1, read-out: DR1 nM (In IC50 Format)): 385 nM; IC50 (DRB5*0101 (DR2w2a); purified HLA DR2w2β2, read-out: DR2w2B2 nM (In IC50 Format)): 20000 nM; IC50 (DRB1*0301 (DR3w17); purified HLA DR3, read-out: DR3 nM (In IC50 Format)): 33300 nM; IC50 (DRB1*0401 (DR4w4); purified HLA DR4w4, read-out: DR4w4 nM (In IC50 Format)): 110 nM; IC50 (DRB1*0701 (DR7); purified HLA DR7, read-out: DR7 nM (In IC50 Format)): 84.1 nM
3 | CSCC[C@H](N)C(=O)NCC(=O)N[C@@H](CCC(N)=O)C(=O)N[C@@H](CC(N)=O)C(=O)N[C@@H](CC(C)C)C(=O)N[C@@H](CO)C(=O)N[C@H](C(=O)N[C@@H](CO)C(=O)N[C@@H](CC(N)=O)C(=O)N1CCC[C@H]1C(=O)N[C@@H](CC(C)C)C(=O)NCC(=O)N[C@@H](Cc1ccccc1)C(=O)N[C@@H](Cc1ccccc1)C(=O)N1CCC[C@H]1C(=O)N[C@@H](CC(=O)O)C(=O)N[C@@H](Cc1c[nH]cn1)C(=O)O)[C@@H](C)O [Peptide 800.01] | 94.3 | 6820 | 68.8 | 2000 | 2000 | 154 | 
4 | CC[C@H](C)[C@H](NC(=O)[C@H](CCCNC(=N)N)NC(=O)[C@H](CO)NC(=O)[C@H](Cc1ccccc1)NC(=O)[C@@H](NC(=O)[C@H](CO)NC(=O)[C@H](CO)NC(=O)[C@H](CC(C)C)NC(=O)[C@@H]1CCCN1C(=O)[C@H](CO)NC(=O)[C@H](C)NC(=O)[C@@H](NC(=O)[C@@H](NC(=O)[C@H](CC(C)C)NC(=O)[C@@H](NC(=O)[C@@H]1CCCN1C(=O)[C@@H](N)CC(N)=O)C(C)C)[C@@H](C)O)[C@@H](C)O)[C@@H](C)CC)C(=O)O [Peptide 801.02] | 714 | 300000 | 54.1 | 6.5 |  | 63.1 | IC50 (DRB5*0101 (DR2w2a); [7]): 20000 nM
5 | CSCC[C@H](NC(=O)[C@H](CC(C)C)NC(=O)[C@H](CCC(=O)O)NC(=O)CNC(=O)[C@H](Cc1c[nH]c2ccccc12)NC(=O)[C@@H](N)CS)C(=O)N[C@H](C(=O)N[C@@H](CC(C)C)C(=O)N[C@@H](C)C(=O)N[C@H](C(=O)N[C@@H](Cc1c[nH]c2ccccc12)C(=O)N[C@H](C(=O)NCC(=O)N[C@H](C(=O)N[C@@H](CC(N)=O)C(=O)N[C@@H](CC(C)C)C(=O)N[C@@H](CCC(=O)O)C(=O)N[C@@H](CC(=O)O)C(=O)O)C(C)C)C(C)C)[C@@H](C)O)[C@@H](C)O [Peptide 802.02] | 357 | 100000 | 738 | 90.7 | 5000 | 6250 | 
6 | CC[C@H](C)[C@H](NC(=O)[C@@H](NC(=O)[C@@H](NC(=O)[C@H](CCC(=O)O)NC(=O)[C@H](CCCNC(=N)N)NC(=O)CN)[C@@H](C)O)C(C)C)C(=O)N[C@@H](CCC(=O)O)C(=O)N[C@@H](Cc1ccc(O)cc1)C(=O)N[C@@H](CC(C)C)C(=O)N[C@H](C(=O)N[C@@H](CO)C(=O)N[C@@H](Cc1ccccc1)C(=O)NCC(=O)N[C@H](C(=O)N[C@@H](Cc1c[nH]c2ccccc12)C(=O)O)C(C)C)C(C)C [Peptide 802.04] | 12.8 | 16700 | 833 | 32.3 | 1540 | 67.6 | IC50 (DRB5*0101 (DR2w2a); [7]): 1330 nM
7 | CC(C)C[C@H](NC(=O)[C@@H](NC(=O)[C@H](C)NC(=O)[C@H](C)NC(=O)[C@H](CCCCN)NC(=O)[C@H](C)NC(=O)[C@H](Cc1ccccc1)NC(=O)[C@H](CCCCN)NC(=O)[C@@H](C)N)[C@@H](C)O)C(=O)N[C@@H](CCCCN)C(=O)N[C@@H](C)C(=O)N[C@@H](C)C(=O)N[C@H](C)C(N)=O [Peptide 871.01] (H-[dA]KFAKAATLKAA[dA]-NH2) |  |  |  |  |  |  | IC50 (DRB1*0101 (DR1); read-out: DR1 nM, Table VIII, In IC50 Format): 4.2 nM; IC50 (DRB5*0101 (DR2w2a); read-out: DR2w2B2 nM, Table VIII, In IC50 Format): 14.7 nM; IC50 (DRB1*0301 (DR3w17); read-out: DR3 nM, Table VIII, In IC50 Format): 37500 nM; IC50 (DRB1*0401 (DR4w4); read-out: DR4w4 nM, Table VIII, In IC50 Format): 3.1 nM; IC50 (DRB10404 (DR4w14); read-out: DR4w14 nM, Table VIII, In IC50 Format): 9.6 nM; IC50 (DRB1*1101 (DR5w11); read-out: DR5w11 nM, Table VIII, In IC50 Format): 14.6 nM; IC50 (DRB1*0701 (DR7); read-out: DR7 nM, Table VIII, In IC50 Format): 301 nM
